Measurements: ChEMBL document CHEMBL1156500, “Characterization of the metabolic activation of hepatitis C virus nucleoside inhibitor beta-D-2'-Deoxy-2'-fluoro-2'-C-methylcytidine (PSI-6130) and identification of a novel active 5'-triphosphate species” (J Biol Chem, 2007)

Tested on: Hepatitis C virus
Assay: Inhibition of RNA synthesis activity of […]
Details: Hepatitis C virus subtype 1b; Con1

Question: With `O=c1ccn([C@@H]2O[C@H](COP(=O)(O)OP(=O)(O)OP(=O)(O)O)[C@@H](O)[C@H]2O)c(=O)[nH]1` as the molecule, how does the Km read?
Answer: 0.37 µM
